Assay results: PMC7230731 (Marine Drugs, 2020)
One block for each molecule: values may come before it.

Legend:
Type in all cases: cell-based, human
[1] = tested on: MCF-7 cells; experiment: SRB antiproliferative assay, MCF-7; details: for IC50: Homo sapiens, MCF7, 48 h, MCF-7 breast cancer cells, SRB assay, 48 h, mean ± S.D. of three experiments; for potency relative to Staurosporine, MCF-7: ratio of IC50 values, MCF-7 cells
Method: 1. Anti-proliferative action toward human breast cell lines […]
and non-tumorigenic human breast epithelial cell line (MCF-10A) have been obtained from American Type Culture Collection (ATCC). The cells were maintained in Dulbecco's modified Eagle's medium (DMEM) supplemented with 10% heat inactivated fetal calf serum (GIBCO), penicillin (100 U/ml) and streptomycin (100 µg/ml) at 37 °C in humidified atmosphere containing 5% CO2. […]
grown in a 25 cm2 flask in 5 ml of culture medium.
The anti-proliferative activity of the tested compounds was measured in vitro using the Sulfo-Rhodamine-B stain (SRB) assay. Briefly, Cells were inoculated in 96-well microtiter plate (5X104 cells/ well) for 24 h before treatment with the tested compounds to allow attachment of cell to the wall of the plate. Tested compounds were dissolved in DMSO at 1 mg/ml immediately before use and diluted to the appropriate volume just before addition to the cell culture. Different concentrations of tested compounds, doxorubicin and sorafenib were added to the cells (three wells were prepared for each […]
atmosphere of 5% CO2. After 48 h cells were fixed, washed, and stained for 30 min with 0.4% (w/v) SRB dissolved in 1% acetic acid. Unbound dye was removed by four washes with 1% acetic acid, and attached stain was recovered with Tris-EDTA buffer. Color intensity was measured in an ELISA reader. The relation between percent of surviving fraction and drug concentration is plotted to get the survival curve for each cell line. […]

[2] = tested on: MCF-7 cells; experiment: Cell cycle analysis by DNA flow cytometry; details: IC50 concentration; for %G0-G1 / %G2/M / %S / %Sub-G1: 24 h
Method: Anticancer agents exert their cytotoxic action by aborting cellular proliferation at certain checkpoints. These checkpoints are distinguishable phases in the cell cycle, whose suppression results in termination of the cell proliferation.
The influence of bis-indoles 7e and 9a on cell cycle progression was examined in breast cancer MCF-7 cells, after 24 h of treatment, through DNA flow cytometric assay by the use of BD FACS Caliber flow cytometer, as described previously. The cell cycle distributions were calculated using CellQuest software (Becton Dickinson). […]
The two examined human breast cancer cell lines (MCF-7 and Breast MDA-MB-231), and non-tumorigenic human breast epithelial cell line (MCF-10A) have been obtained from American Type Culture Collection (ATCC). The cells were maintained in Dulbecco's modified Eagle's medium (DMEM) supplemented with 10% heat inactivated fetal calf serum (GIBCO), penicillin (100 U/ml) and streptomycin (100 µg/ml) at 37 °C in humidified atmosphere containing 5% CO2. Cells at a concentration of 0.50 x 106 were grown in a 25 cm2 flask in 5 ml of culture medium. […]
Breast cancer MCF-7 cells were treated with bis-indoles 7e and 9a for 24 h (at their IC50 concentration), and then cells were washed twice with ice-cold phosphate buffered saline (PBS). Subsequently, the treated cells were collected by centrifugation, fixed in ice-cold 70% (v/v) ethanol, washed with PBS, re-suspended with 100 μg/mL RNase, stained with 40 μg/mL PI, and analyzed by flow cytometry using FACS Calibur (Becton Dickinson, BD, Franklin Lakes, NJ, USA). The cell cycle distributions were calculated using CellQuest software 5.1 (Becton Dickinson).

[3] = tested on: Bcl-2; experiment: ELISA immunoassay, Bcl-2 level; details: MCF-7 cells; for Bcl-2: IC50 concentration, 48 h
Description: Synchronization of the mitochondrial pathway is headed by the Bcl-2 family of proteins. These proteins are classified into two groups: anti-apoptotic proteins exemplified by Bcl-2 protein and the counteracting pro-apoptotic proteins including Bax protein [21]. As induction of the apoptotic machinery is one of the most useful strategies in cancer therapy, we investigated the effect of our compounds to boost the pro-apoptotic protein; Bax and reduce the anti-apoptotic protein; Bcl-2 in an attempt to explore the underlying mechanism for their cytotoxic activity (Table 1). […] Fortunately, both compounds markedly boosted the level of Bax by 8.3- and 6.4-fold, respectively (Table 4, Figure 3).
Effects of treatment of breast cancer MCF-7 cells with bis-indoles 7e and 9a on the expression levels of the pro-apoptotic markers (Bax, caspase-3, and p53) in addition to the anti-apoptotic protein Bcl-2 marker was assessed by the use of ELISA colorimetric kits as per the manufacturer’s instructions, as described earlier.
The levels of the pro-apoptotic markers (Bax, caspase-3 and p53) as well as the anti-apoptotic marker Bcl-2 were determined using ELISA colorimetric kits per the manufacturer’s instructions. Breast cancer MCF-7 cells were cultured as a monolayer in T-25 flasks and were seeded to attain 30% confluency prior to treatment. Cells were […]
At the end of treatment, cells were collected via trypsinization and centrifuged at 10,000 rpm. The pellet was then rinsed with PBS and lysed in RIPA lysis buffer at 4 °C for 45 min, then centrifuged at 14,000 rpm for 20 min to remove the cellular debris. Lysates were then collected and stored at −80 °C for later protein determination using Pierce BCA Protein Assay Kit according to manufacturer’s recommendations.
The cell lysate was diluted 10 times, and 100 μL ([…]) was added to the wells of four separate microtiter plates for the four ELISA kits that were pre-coated with primary antibodies specific to Bax, Bcl-2, caspase-3 and p53 proteins, respectively. A secondary biotin-linked antibody specific to the protein captured by the primary antibody was further added to bind the captured protein, forming a “sandwich” of specific antibodies around the desired protein in the cell lysate. The streptavidin-HRP complex was then used to bind the biotin-linked secondary antibody through its streptavidin portion. The HRP domain reacted with the added TMB substrate to form a colored product that measured at 450 nm by a plate reader ChroMate-4300 after the reaction was terminated via the addition of stop solution. […]

IC50 [1]: 1280 ± 40 nM
SMILES: C=CCN1C(=O)C(=NNC(=O)Cc2c[nH]c3ccccc23)c2ccccc21 [Compound 9a, N′-(1-Allyl-2-oxoindolin-3-ylidene)-2-(1H-indol-3-yl)acetohydrazide]
potency relative to Staurosporine, MCF-7 [1]: 5.3 times
augmentation of proportion of cells in G2/M phase vs control [2]: 2.21 fold
augmentation of proportion of cells in Sub-G1 phase vs control [2]: 13.42 fold
%G0-G1 [2]: 43.82%
%G2/M [2]: 31.27%
%S [2]: 24.91%
%Sub-G1 [2]: 24.02%
decrease of Bcl-2 level vs control [3]: 1.74 fold
Bcl-2 [3]: 2.67 ± 0.16 ng/mg of Total Protein

IC50 [1]: 440 ± 10 nM
SMILES: O=C(Cc1c[nH]c2ccccc12)NN=C1C(=O)Nc2ccc([N+](=O)[O-])cc21 [Compound 7e, 2-(1H-Indol-3-yl)-N′-(5-nitro-2-oxoindolin-3-ylidene)acetohydrazide]
potency relative to Staurosporine, MCF-7 [1]: 15.5 times
augmentation of proportion of cells in G2/M phase vs control [2]: 3 fold
augmentation of proportion of cells in Sub-G1 phase vs control [2]: 18.77 fold
%G0-G1 [2]: 31.66%
%G2/M [2]: 42.9%
%S [2]: 25.44%
%Sub-G1 [2]: 33.61%
decrease of Bcl-2 level vs control [3]: 2.25 fold
Bcl-2 [3]: 2.07 ± 0.14 ng/mg of Total Protein
